According to patent publication US20200207734A1, “HETEROCYCLIC COMPOUND AND USE THEREOF” (Takeda Pharmaceutical Company Limited, priority 2017, published 2020):

molecular target: T1, human orexin type 2 receptor (Homo sapiens, UniProt O43614); experiment: Measurement of orexin type 2 receptor agonist activity (calcium fluorescence, CHO cells expressing hOX2R); assay type: cell-based; settings: test compound 3 μM; CHO cells expressing human OX2 receptor; DMSO = 0%, orexin A (human) = 100%
T1 construct: human orexin type 2 receptor cDNA was inserted into pcDNA3.1(+) plasmid vector (Invitrogen); expressed in transfected cells
T1 sequence (O43614 1-444): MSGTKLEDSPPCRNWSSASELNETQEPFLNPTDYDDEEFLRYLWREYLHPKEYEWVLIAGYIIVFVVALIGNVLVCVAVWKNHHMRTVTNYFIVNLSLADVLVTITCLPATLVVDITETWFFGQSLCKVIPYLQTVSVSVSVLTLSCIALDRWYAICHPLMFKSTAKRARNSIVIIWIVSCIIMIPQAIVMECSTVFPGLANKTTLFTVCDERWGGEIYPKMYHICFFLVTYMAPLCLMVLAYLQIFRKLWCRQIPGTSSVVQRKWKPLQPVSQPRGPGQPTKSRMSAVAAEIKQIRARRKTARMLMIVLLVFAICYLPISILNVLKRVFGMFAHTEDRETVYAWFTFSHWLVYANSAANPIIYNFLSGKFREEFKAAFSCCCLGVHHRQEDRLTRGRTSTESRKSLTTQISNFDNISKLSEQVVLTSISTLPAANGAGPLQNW
From the text: To obtain a cell clone stably expressing human orexin type 2 receptor, human orexin type 2 receptor cDNA was inserted into pcDNA3.1(+) plasmid vector (Invitrogen), and a plasmid DNA for expression of human orexin type 2 receptor (pcDNA3.1(+)/hOX2R) was cloned. The plasmid DNA was introduced into CHO-dhfr cell by an electroporation method, and human orexin type 2 receptor expressing clone cells were obtained by limiting dilution method by using G418 drug resistance as a selection marker.
CHO cells forcibly expressing human OX2 receptor were seeded in each well of 384 well black transparent bottom plate (BD Falcon) at 7,500 cells/well, and cultured for one day in a 5% CO2 incubator at 37° C. After removal of the medium in the cell plate, assay buffer A containing a calcium indicator (HBSS (Thermo Fisher Scientific), 20 mM HEPES (Thermo Fisher Scientific), 0.1% BSA (Wako Pure Chemical Industries, Ltd. or Sigma-Aldrich), 2.5 μg/mL Fluo-4 AM (DOJINDO Chemical), 0.08% Pluronic F127 (DOJINDO Chemical), 1.25 mM probenecid (DOJINDO Chemical)) was added at 30 μL/well. The plate was stood for 30 min in a 5% CO2 incubator at 37° C., and further stood at room temperature for 30 min. A test compound prepared by diluting with assay buffer B (HBSS, 20 mM HEPES, 0.1% BSA) was added at 10 μL/well, and the fluorescence value was measured by FDSSμCELL (Hamamatsu Photonics K.K.) every one sec for 1 min, and thereafter every two sec for 1 min 40 sec. The activity (%) of the test compound was calculated assuming that variation in the fluorescence value when DMSO was added instead of the test compound was 0%, and variation in the fluorescence value when orexin A (human) (PEPTIDE INSTITUTE, INC.) was added at the final concentration of 10 nM was 100%.

SMILES | OX2R agonist activity (3 μM, %) [%]
C=C(C)c1cccc(C[C@H]2[C@@H](NS(=O)(=O)C3CC3)CCCN2C(=O)OC(C)C)n1 (relative stereo) [Example 191, isopropyl cis-3-((cyclopropylsulfonyl)amino)-2-((6-(prop-1-en-2-yl)pyridin-2-yl)methyl)piperidine-1-carboxylate] | 79
CN(C)C(=O)N1CCC[C@H](NS(C)(=O)=O)[C@@H]1Cc1cccc(-c2ccccc2)c1 (relative stereo) [Example 204, cis-2-(biphenyl-3-ylmethyl)-N,N-dimethyl-3-((methylsulfonyl)amino)piperidine-1-carboxamide] | 95
CS(=O)(=O)N[C@H]1CCN(C(=O)C2CC2)[C@H]1Cc1cccc(-c2ccccc2)c1 (relative stereo) [Example 206, N-(cis-2-(biphenyl-3-ylmethyl)-1-(cyclopropylcarbonyl)pyrrolidin-3-yl)methanesulfonamide] | 94
CC(C)C(=O)N1CC[C@H](NS(C)(=O)=O)[C@@H]1Cc1cccc(-c2ccccc2)c1 (relative stereo) [Example 209, N-(cis-2-(biphenyl-3-ylmethyl)-1-isobutyrylpyrrolidin-3-yl)methanesulfonamide] | 106
CC(C)OC(=O)N1CCC[C@H](NS(C)(=O)=O)[C@@H]1CC1CCCN(c2ccccc2)C1 (relative stereo) [Example 214, isopropyl cis-3-((methylsulfonyl)amino)-2-((1-phenylpiperidin-3-yl)methyl)piperidine-1-carboxylate] | 70
CC(C)(C)C(=O)N1CC[C@H](NS(C)(=O)=O)[C@@H]1Cc1cccc(-c2ccccc2)c1 (relative stereo) [Example 227, N-(cis-2-(biphenyl-3-ylmethyl)-1-(2,2-dimethylpropanoyl)pyrrolidin-3-yl)methanesulfonamide] | 99
CS(=O)(=O)N[C@H]1CCN(C(=O)C2CCC2)[C@H]1Cc1csc(-c2cccc(F)c2)n1 (relative stereo) [Example 254, N-(cis-1-(cyclobutylcarbonyl)-2-((2-(3-fluorophenyl)-1,3-thiazol-4-yl)methyl)pyrrolidin-3-yl)methanesulfonamide] | 101
CS(=O)(=O)N[C@H]1CCN(C(=O)C2CCC2)[C@H]1Cc1csc(-c2ccccc2F)n1 (relative stereo) [Example 255, N-(cis-1-(cyclobutylcarbonyl)-2-((2-(2-fluorophenyl)-1,3-thiazol-4-yl)methyl)pyrrolidin-3-yl)methanesulfonamide] | 101
CS(=O)(=O)N[C@H]1CCN(C(=O)C2CCC2)[C@H]1Cc1csc(-c2cccc(F)c2F)n1 (relative stereo) [Example 256, N-(cis-1-(cyclobutylcarbonyl)-2-((2-(2,3-difluorophenyl)-1,3-thiazol-4-yl)methyl)pyrrolidin-3-yl)methanesulfonamide] | 97
CS(=O)(=O)N[C@H]1CCN(C(=O)C2CCC2)[C@H]1Cc1csc(-c2cc(F)cc(F)c2)n1 (relative stereo) [Example 258, N-(cis-1-(cyclobutylcarbonyl)-2-((2-(3,5-difluorophenyl)-1,3-thiazol-4-yl)methyl)pyrrolidin-3-yl)methanesulfonamide] | 95
O=C(C1CCC1)N1CC[C@H](NS(=O)(=O)C2CC2)[C@@H]1Cc1csc(-c2ccccc2)n1 (relative stereo) [Example 259, N-(cis-1-(cyclobutylcarbonyl)-2-((2-phenyl-1,3-thiazol-4-yl)methyl)pyrrolidin-3-yl)cyclopropanesulfonamide] | 95
O=C(C1CCC1)N1CC[C@H](NS(=O)(=O)CF)[C@@H]1Cc1csc(-c2ccccc2)n1 (relative stereo) [Example 269, N-(cis-1-(cyclobutylcarbonyl)-2-((2-phenyl-1,3-thiazol-4-yl)methyl)pyrrolidin-3-yl)-1-fluoromethanesulfonamide] | 111
CC(C)C(=O)N1CC[C@H](NS(C)(=O)=O)[C@@H]1Cc1cccc(-c2ccccc2)c1F (relative stereo) [Example 293, N-(cis-2-((2-fluorobiphenyl-3-yl)methyl)-1-isobutyrylpyrrolidin-3-yl)methanesulfonamide] | 102
CC(C)C(=O)N1CC[C@H](NS(C)(=O)=O)[C@@H]1Cc1cccc(-c2cccc(F)c2)c1F (relative stereo) [Example 294, N-(cis-2-((2,3′-difluorobiphenyl-3-yl)methyl)-1-isobutyrylpyrrolidin-3-yl)methanesulfonamide] | 104
CS(=O)(=O)N[C@H]1CCN(C(=O)C2CCC2)[C@H]1Cc1cc(F)cc(-c2ccccc2)c1 (relative stereo) [Example 299, N-(cis-1-(cyclobutylcarbonyl)-2-((5-fluorobiphenyl-3-yl)methyl)pyrrolidin-3-yl)methanesulfonamide] | 100
CS(=O)(=O)N[C@H]1CCN(C(=O)C2CCC2)[C@H]1Cc1cc(F)cc(-c2cccc(F)c2)c1 (relative stereo) [Example 300, N-(cis-1-(cyclobutylcarbonyl)-2-((3′,5-difluorobiphenyl-3-yl)methyl)pyrrolidin-3-yl)methanesulfonamide] | 99
CS(=O)(=O)N[C@H]1CCN(C(=O)C2CCC2)[C@H]1Cc1ccc(F)c(-c2ccccc2)c1 (relative stereo) [Example 303, N-(cis-1-(cyclobutylcarbonyl)-2-((6-fluorobiphenyl-3-yl)methyl)pyrrolidin-3-yl)methanesulfonamide] | 95
CS(=O)(=O)N[C@H]1CCN(C(=O)C2CCC2)[C@H]1Cc1ccc(F)c(-c2cccc(F)c2)c1 (relative stereo) [Example 304, N-(cis-1-(cyclobutylcarbonyl)-2-((3′,6-difluorobiphenyl-3-yl)methyl)pyrrolidin-3-yl)methanesulfonamide] | 94
CCS(=O)(=O)N[C@H]1CCN(C(=O)C2CCC2)[C@H]1Cc1csc(-c2cc(F)cc(F)c2)n1 (relative stereo) [Example 315, N-(cis-1-(cyclobutylcarbonyl)-2-((2-(3,5-difluorophenyl)-1,3-thiazol-4-yl)methyl)pyrrolidin-3-yl)ethanesulfonamide] | 105
CCS(=O)(=O)N[C@H]1CCN(C(=O)C2(C)CCC2)[C@H]1Cc1csc(-c2cc(F)cc(F)c2)n1 (relative stereo) [Example 316, N-(cis-2-((2-(3,5-difluorophenyl)-1,3-thiazol-4-yl)methyl)-1-((1-methylcyclobutyl)carbonyl)pyrrolidin-3-yl)ethanesulfonamide] | 104
CCS(=O)(=O)N[C@H]1CCN(C(=O)C2(O)CCC2)[C@H]1Cc1csc(-c2cc(F)cc(F)c2)n1 (relative stereo) [Example 317, N-(cis-2-((2-(3,5-difluorophenyl)-1,3-thiazol-4-yl)methyl)-1-((1-hydroxycyclobutyl)carbonyl)pyrrolidin-3-yl)ethanesulfonamide] | 103
CCS(=O)(=O)N[C@H]1CCN(C(=O)C23CC(C2)C3)[C@H]1Cc1csc(-c2cc(F)cc(F)c2)n1 (relative stereo) [Example 318, N-(cis-1-(bicyclo[1.1.1]pent-1-ylcarbonyl)-2-((2-(3,5-difluorophenyl)-1,3-thiazol-4-yl)methyl)pyrrolidin-3-yl)ethanesulfonamide] | 102
CS(=O)(=O)N[C@H]1CCN(C(=O)C2CCC2)[C@H]1Cc1csc(-c2ccccc2)n1 (relative stereo) [Example 319, N-(cis-1-(cyclobutylcarbonyl)-2-((2-phenyl-1,3-thiazol-4-yl)methyl)pyrrolidin-3-yl)methanesulfonamide] | 101
CC1(C(=O)N2CC[C@H](NS(C)(=O)=O)[C@@H]2Cc2csc(-c3cc(F)cc(F)c3)n2)CCC1 (relative stereo) [Example 322, N-(cis-2-((2-(3,5-difluorophenyl)-1,3-thiazol-4-yl)methyl)-1-((1-methylcyclobutyl)carbonyl)pyrrolidin-3-yl)methanesulfonamide] | 104
